Km data for one compound are collected here from PMC6218510, “Step Sizes and Rate Constants of Single-headed Cytoplasmic Dynein Measured with Optical Tweezers” (Scientific Reports, 2018).

Assay [1] has as its target T1, D384GB (D384 with GFP at the linker N-terminus and BFP in AAA2) (Homo sapiens, UniProt Q14204).
T1 construct: gene DYNC1H1; Gly1288-Glu4646; N-terminal FLAG, BCCP and AcGFP kept; BFP inserted between Glu2404 and Gly2405 (AAA2); Sf9; monomer
As to the kind of experiment: BFP-GFP FRET efficiency of linker swing against ATP, steady state. The assay is classed as biochemical. The settings on record: no microtubules; ATP-regenerating system (creatine phosphate / creatine phosphate kinase); 100 nM dynein; conformational read-out, not a turnover Km; read-out: Km^E (k1/kT).

Assay [2] deals with T1, D384GB (D384 with GFP at the linker N-terminus and BFP in AAA2). As to the kind of experiment: ATPase assay, phosphate release (EnzChek, absorbance […] nm). It counts as biochemical. The settings on record: basal, no microtubules; 25 °C; read-out: Michaelis-Menten constant.

T1 sequence (Q14204 1288-2404): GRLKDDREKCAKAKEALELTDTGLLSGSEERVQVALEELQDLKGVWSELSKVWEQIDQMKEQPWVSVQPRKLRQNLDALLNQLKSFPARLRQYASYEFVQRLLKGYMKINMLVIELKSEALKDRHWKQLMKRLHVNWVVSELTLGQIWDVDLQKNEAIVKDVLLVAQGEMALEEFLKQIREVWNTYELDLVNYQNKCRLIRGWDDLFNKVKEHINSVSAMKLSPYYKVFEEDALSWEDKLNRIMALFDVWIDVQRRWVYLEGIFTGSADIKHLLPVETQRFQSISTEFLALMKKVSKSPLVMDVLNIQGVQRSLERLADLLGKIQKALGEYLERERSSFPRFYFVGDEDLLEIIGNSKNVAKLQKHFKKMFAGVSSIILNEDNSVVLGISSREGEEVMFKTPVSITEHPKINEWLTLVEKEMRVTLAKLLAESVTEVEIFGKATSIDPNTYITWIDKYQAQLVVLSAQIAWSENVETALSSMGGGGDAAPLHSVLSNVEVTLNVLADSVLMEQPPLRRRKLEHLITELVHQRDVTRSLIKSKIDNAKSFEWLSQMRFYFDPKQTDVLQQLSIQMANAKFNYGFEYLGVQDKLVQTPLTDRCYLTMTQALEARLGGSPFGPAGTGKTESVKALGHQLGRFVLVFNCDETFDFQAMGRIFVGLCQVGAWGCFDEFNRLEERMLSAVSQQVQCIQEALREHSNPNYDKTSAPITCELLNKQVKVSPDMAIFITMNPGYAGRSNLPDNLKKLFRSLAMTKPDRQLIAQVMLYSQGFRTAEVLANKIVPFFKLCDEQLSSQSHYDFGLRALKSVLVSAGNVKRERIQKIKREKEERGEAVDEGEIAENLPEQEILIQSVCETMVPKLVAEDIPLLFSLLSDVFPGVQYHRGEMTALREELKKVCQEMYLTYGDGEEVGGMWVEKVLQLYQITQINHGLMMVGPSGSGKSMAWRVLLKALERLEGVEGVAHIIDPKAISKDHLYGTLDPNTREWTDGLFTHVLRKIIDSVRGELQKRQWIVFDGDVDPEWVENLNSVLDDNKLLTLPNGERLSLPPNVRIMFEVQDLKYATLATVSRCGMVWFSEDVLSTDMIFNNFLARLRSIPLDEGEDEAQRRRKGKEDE
T1 sequence (Q14204 2405-4646): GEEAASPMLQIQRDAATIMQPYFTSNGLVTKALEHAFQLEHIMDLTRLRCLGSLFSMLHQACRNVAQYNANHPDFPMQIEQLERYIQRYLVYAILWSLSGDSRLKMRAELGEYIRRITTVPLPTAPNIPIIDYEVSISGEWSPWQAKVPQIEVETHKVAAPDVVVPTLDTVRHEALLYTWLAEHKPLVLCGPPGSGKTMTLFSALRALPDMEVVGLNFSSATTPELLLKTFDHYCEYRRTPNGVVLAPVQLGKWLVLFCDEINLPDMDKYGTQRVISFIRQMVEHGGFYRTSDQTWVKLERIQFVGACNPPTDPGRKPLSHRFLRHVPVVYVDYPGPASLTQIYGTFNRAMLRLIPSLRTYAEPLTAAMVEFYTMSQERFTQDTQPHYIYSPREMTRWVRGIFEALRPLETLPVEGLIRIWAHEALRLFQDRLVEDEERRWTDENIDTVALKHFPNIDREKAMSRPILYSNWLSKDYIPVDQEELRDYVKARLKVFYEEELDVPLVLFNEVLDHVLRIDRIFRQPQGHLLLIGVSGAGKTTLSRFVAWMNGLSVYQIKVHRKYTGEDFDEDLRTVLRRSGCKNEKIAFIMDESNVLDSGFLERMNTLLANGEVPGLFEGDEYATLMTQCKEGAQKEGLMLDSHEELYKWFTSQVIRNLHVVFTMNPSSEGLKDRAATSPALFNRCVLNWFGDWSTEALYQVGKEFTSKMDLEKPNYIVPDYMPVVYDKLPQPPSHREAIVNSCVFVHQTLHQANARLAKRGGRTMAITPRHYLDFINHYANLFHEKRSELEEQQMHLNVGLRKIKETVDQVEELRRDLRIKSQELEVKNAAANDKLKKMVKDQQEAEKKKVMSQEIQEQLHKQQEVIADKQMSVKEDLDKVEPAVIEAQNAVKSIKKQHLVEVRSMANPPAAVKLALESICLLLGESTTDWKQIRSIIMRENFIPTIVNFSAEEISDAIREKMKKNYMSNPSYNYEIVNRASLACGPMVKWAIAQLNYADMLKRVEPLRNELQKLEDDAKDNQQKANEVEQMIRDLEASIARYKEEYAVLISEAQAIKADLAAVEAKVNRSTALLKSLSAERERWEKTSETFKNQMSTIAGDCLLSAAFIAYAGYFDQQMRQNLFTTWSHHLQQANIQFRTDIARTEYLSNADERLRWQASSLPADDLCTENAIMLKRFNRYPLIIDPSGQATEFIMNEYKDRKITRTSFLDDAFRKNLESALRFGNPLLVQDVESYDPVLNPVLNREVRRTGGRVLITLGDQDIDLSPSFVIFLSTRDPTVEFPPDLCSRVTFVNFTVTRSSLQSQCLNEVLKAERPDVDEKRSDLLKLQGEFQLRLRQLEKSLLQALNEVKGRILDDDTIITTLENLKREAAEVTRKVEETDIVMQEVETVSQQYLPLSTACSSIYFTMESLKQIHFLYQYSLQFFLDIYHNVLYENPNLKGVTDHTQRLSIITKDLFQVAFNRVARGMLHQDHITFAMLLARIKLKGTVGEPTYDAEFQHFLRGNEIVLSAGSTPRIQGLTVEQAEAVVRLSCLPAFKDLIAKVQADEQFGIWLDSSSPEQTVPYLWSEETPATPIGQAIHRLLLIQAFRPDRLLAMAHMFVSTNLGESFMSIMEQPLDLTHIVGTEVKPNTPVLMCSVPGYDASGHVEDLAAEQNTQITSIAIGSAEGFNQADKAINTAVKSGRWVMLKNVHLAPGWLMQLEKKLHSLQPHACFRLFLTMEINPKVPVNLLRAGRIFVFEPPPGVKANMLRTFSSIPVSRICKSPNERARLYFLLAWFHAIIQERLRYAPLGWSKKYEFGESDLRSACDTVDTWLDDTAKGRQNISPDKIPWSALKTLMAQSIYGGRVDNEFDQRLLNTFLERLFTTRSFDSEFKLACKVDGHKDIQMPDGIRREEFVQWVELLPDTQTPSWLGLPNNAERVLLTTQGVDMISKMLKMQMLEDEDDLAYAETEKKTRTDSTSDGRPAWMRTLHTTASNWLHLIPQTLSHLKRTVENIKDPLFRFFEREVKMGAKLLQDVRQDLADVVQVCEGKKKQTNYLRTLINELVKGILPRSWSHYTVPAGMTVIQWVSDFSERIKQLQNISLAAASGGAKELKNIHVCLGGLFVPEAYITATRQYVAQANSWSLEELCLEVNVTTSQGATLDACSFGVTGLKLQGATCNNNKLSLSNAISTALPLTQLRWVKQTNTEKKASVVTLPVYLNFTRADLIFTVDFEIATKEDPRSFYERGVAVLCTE

Take `Nc1ncnc2c1ncn2[C@@H]1O[C@H](COP(=O)(O)OP(=O)(O)OP(=O)(O)O)[C@@H](O)[C@H]1O` [ATP]: the Km was found to be 3.3 ± 0.3 µM in assay [1] and 27 ± 3 µM in assay [2].
